Assay results published in PubChem BioAssay (NCI).
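Dose response: 5 concentrations. Exposure: 48 h. Format: 96-well plates. Endpoint: linear interpolation; highest concentration if not reached. GI50: concentration for 50% inhibition of growth. TGI denotes the concentration required for complete inhibition of growth.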

Tests used:
Assay in all cases: inhibition of tumour cell growth, NCI panel, 48 h
SF-295 CNS = system: SF-295 CNS
IGROV1 ovarian = system: IGROV1 ovarian
SF-268 CNS = system: SF-268 CNS
NCI-H522 lung = system: NCI-H522 lung
A498 renal = system: A498 renal
OVCAR-3 ovarian = system: OVCAR-3 ovarian
MDA-MB-231 breast = system: MDA-MB-231 breast
LOX IMVI melanoma = system: LOX IMVI melanoma
CCRF-CEM leukemia = system: CCRF-CEM leukemia
HS 578T breast = system: HS 578T breast

Structure (SMILES)	TGI (SF-295 CNS) [µM]	TGI (IGROV1 ovarian) [µM]	TGI (SF-268 CNS) [µM]	TGI (NCI-H522 lung) [µM]	GI50 (A498 renal) [µM]	TGI (A498 renal) [µM]	GI50 (OVCAR-3 ovarian) [µM]	TGI (OVCAR-3 ovarian) [µM]	GI50 (MDA-MB-231 breast) [µM]	TGI (MDA-MB-231 breast) [µM]	GI50 (SF-295 CNS) [µM]	GI50 (IGROV1 ovarian) [µM]	GI50 (SF-268 CNS) [µM]	GI50 (NCI-H522 lung) [µM]	GI50 (LOX IMVI melanoma) [µM]	TGI (LOX IMVI melanoma) [µM]	TGI (CCRF-CEM leukemia) [µM]	TGI (HS 578T breast) [µM]
COc1nc(OC)c2c(=O)oc(-c3ccccc3)cc2n1	> 100	> 100	> 100	> 100	–	–	–	–	–	–	–	–	–	–	–	–	–	–
COc1cc(-c2c3c(cn2S(=O)(=O)c2ccccc2)-c2nc(N)sc2CC3)cc(OC)c1OC	3.52	75.1	> 100	6.83	0.56	22.3	0.414	6.9	1.1	79.1	0.372	2.23	4.46	0.349	0.987	> 100	–	–
CCCCCCC1CCC2CCCC(C)N12 (configuration not stated)	> 100	–	> 100	> 100	–	–	–	> 100	–	–	–	–	–	–	–	–	62	–
CC(C)C1CN1CC(O)Cn1ccnc1[N+](=O)[O-] (configuration not stated)	> 100	> 100	> 100	> 100	–	> 100	–	> 100	–	> 100	–	–	–	–	–	–	> 100	> 100
O=C(Cc1ccccc1)Oc1ccc2c(-c3ccccc3)c(C(=O)Nc3ccc(Cl)cc3)c(=O)oc2c1	> 100	> 100	> 100	> 100	–	> 100	–	> 100	–	–	–	–	–	–	–	> 100	> 100	–
COc1ccc(-c2cc(C(=O)Nc3cccc(C(F)(F)F)c3)[nH]c(=S)n2)cc1	> 100	> 100	> 100	> 100	–	> 100	–	> 100	–	–	–	–	–	–	–	> 100	> 100	–
CC(NC(=O)c1ccccc1)C(=O)N(Cc1ccccc1)Cc1ccccc1 (configuration not stated)	75	> 100	> 100	65.2	–	89.9	–	–	–	–	–	–	–	–	–	47.7	47.1	–
O=c1cc2n(c(=O)[nH]1)C1OC(C(O)C1O)[C@@H]2CCO (some centres not stated)	> 100	> 100	> 100	> 100	–	> 100	–	–	–	–	–	–	–	–	–	> 100	> 100	–
COC(=O)c1cnc2nc(N3CCOCC3)[nH]n2c1=O	> 100	> 100	> 100	> 100	–	> 100	–	> 100	–	–	–	–	–	–	–	> 100	> 100	–
CS(=O)(=O)C1S(=O)(=O)OCCOS1(=O)=O	> 100	> 100	> 100	> 100	–	> 100	–	> 100	–	–	–	–	–	–	–	> 100	–	–
CN(C)CCNC(=O)c1ccc2ccc3cccnc3c2n1	88.2	> 100	54.5	25.5	–	> 57.4	–	99	–	–	–	–	–	–	–	49.8	> 100	–
CCCCN(CC)C(=O)C(=O)C1C(=O)Nc2ccccc2S1=O (configuration not stated)	–	> 100	> 100	> 100	–	> 100	–	> 100	–	–	–	–	–	–	–	> 100	> 100	–
Cc1cccc(C)c1NC(=O)CCC(=O)NNC(=O)c1cc(O)c2ccccc2c1	87.6	> 100	> 100	82.3	–	3.78	–	> 100	–	–	–	–	–	–	–	> 100	72.5	–
